Columns and labels:
Carbonic anhydrase 9 [1] = target: T1, Carbonic anhydrase 9 (Homo sapiens, UniProt Q16790); assay: Inhibition of human carbonic anhydrase 9 using 4-NPA as substrate after 3 mins by spectrophotometric analysis
HEK293 = assay: Cytotoxicity against human HEK293 cells after 48 hrs by MTT assay; type: cell-based; conditions: HEK293, 48 h
MCF7 = assay: Cytotoxicity against human MCF7 cells after 48 hrs by MTT assay; type: functional, cell-based; conditions: MCF7, 48 h
[2] = Ratio of IC50 for HEK293 cells to IC50 for human MCF7 cells; type: toxicity; conditions: HEK293 cells versus MCF7 cells, read-out: Ratio IC50
[3] = Ratio of IC50 for HEK293 cells to IC50 for human HepG2 cells; type: toxicity; conditions: HEK293 cells versus HepG2 cells, read-out: Ratio IC50
HepG2 = assay: cells; conditions: Homo sapiens, HepG2, 48 h
Description: Cytotoxicity against human HepG2 cells after 48 hrs by MTT assay

Carbonic anhydrase 2 = Carbonic anhydrase 2 (Homo sapiens, UniProt P00918); assay: Inhibition of human carbonic anhydrase 2 using 4-NPA as substrate after 3 mins by spectrophotometric analysis
Carbonic anhydrase 9 [4] = target: T1, Carbonic anhydrase 9; assay: Binding affinity to human carbonic anhydrase 9 by spectrofluorimetric analysis

SMILES | IC50 (Carbonic anhydrase 9 [1]) | IC50 (HepG2) | IC50 (Carbonic anhydrase 2) | IC50 (Carbonic anhydrase 9 [4]) | IC50 (HEK293) | IC50 (MCF7) | selectivity ratio [2] | selectivity ratio [3]
S=C(NCc1ccncc1)Nc1ccccc1 | 17.9 µM | 19.3 µM | – | – | 47.2 µM | 37.3 µM | 1.2 | 2.4
COc1cc(/C=C2/S/C(=N/c3ccccc3)N(Cc3ccncc3)C2=O)ccc1O | 60.9 µM | 28.6 µM | – | – | 67.4 µM | 28 µM | 2.4 | 2.3
O=C1/C(=C\c2ccccc2)S/C(=N/c2ccccc2)N1Cc1ccncc1 | 50.9 µM | 25.2 µM | – | – | 64.7 µM | 26.4 µM | 2.4 | 2.5
O=C1/C(=C\c2ccc(Cl)cc2)S/C(=N/c2ccccc2)N1Cc1ccncc1 | 40.2 µM | 28.8 µM | – | – | 42.3 µM | 54.9 µM | 1.1 | 1.4
COc1ccc(OC)c(/C=C2/S/C(=N/c3ccccc3)N(Cc3ccncc3)C2=O)c1 | 16.7 µM | 35.8 µM | – | – | 80.1 µM | 37 µM | 2.1 | 2.2
CCOc1cc(/C=C2/S/C(=N/c3ccccc3)N(Cc3ccncc3)C2=O)ccc1O | 38.4 µM | 20.4 µM | – | – | 46.5 µM | 20.1 µM | 2.3 | 2.2
O=C1/C(=C\c2ccccn2)S/C(=N/c2ccccc2)N1Cc1ccncc1 | 6.64 µM | 31 µM | – | – | 161 µM | 21.1 µM | 7.6 | 5.2
O=C1/C(=C\c2ccc([N+](=O)[O-])cc2)S/C(=N/c2ccccc2)N1Cc1ccncc1 | 1.61 µM | 18.9 µM | 14.4 µM | 11.2 µM | 250 µM | 13 µM | 19.2 | 13.2
COc1cccc2c1C(=O)c1c(O)c3c(c(O)c1C2=O)C[C@@](O)(C(=O)CO)C[C@@H]3O[C@H]1C[C@H](N)[C@H](O)[C@H](C)O1 [DOXORUBICIN] | – | – | – | – | 148 µM | – | – | –

More lines, main results first:

IC50 (Carbonic anhydrase 9 [1]) | IC50 (HepG2) | IC50 (Carbonic anhydrase 2) | IC50 (Carbonic anhydrase 9 [4]) | SMILES | IC50 (HEK293) | IC50 (MCF7) | selectivity ratio [2] | selectivity ratio [3]
63.1 µM | 32.3 µM | – | – | CC(C)c1ccc(/C=C2/S/C(=N/c3ccccc3)N(Cc3ccncc3)C2=O)cc1 | 137 µM | 53.3 µM | 2.5 | 4.2
10 µM | 23.1 µM | – | – | Cc1ccc(/C=C2/S/C(=N/c3ccccc3)N(Cc3ccncc3)C2=O)s1 | 146 µM | 28.7 µM | 5.1 | 6.3
43.5 µM | 28.9 µM | – | – | O=C1/C(=C\c2cccc(Cl)c2)S/C(=N/c2ccccc2)N1Cc1ccncc1 | 71.8 µM | 29.8 µM | 2.4 | 2.4
6.72 µM | 11.8 µM | – | – | O=C1/C(=C\c2ccc(O)cc2)S/C(=N/c2ccccc2)N1Cc1ccncc1 | 142 µM | 18.9 µM | 7.5 | 12
32.9 µM | 52.6 µM | – | – | CN(C)c1ccc(/C=C2/S/C(=N/c3ccccc3)N(Cc3ccncc3)C2=O)cc1 | 122 µM | 76.3 µM | 1.6 | 2.3
20.9 µM | 28.9 µM | – | – | COc1ccc(/C=C2/S/C(=N/c3ccccc3)N(Cc3ccncc3)C2=O)cc1OC | 171 µM | 80.7 µM | 2.1 | 5.9
58.4 µM | 24.4 µM | – | – | O=C1/C(=C\c2ccc3c(c2)OCO3)S/C(=N/c2ccccc2)N1Cc1ccncc1 | 64.8 µM | 35.2 µM | 1.8 | 2.6
26.1 µM | 26 µM | – | – | O=C1CS/C(=N/c2ccccc2)N1Cc1ccncc1 | 99.5 µM | 65.8 µM | 1.5 | 3.8
10.8 µM | 17.6 µM | – | – | O=C1/C(=C\c2cccc(O)c2)S/C(=N/c2ccccc2)N1Cc1ccncc1 | 150 µM | 43.6 µM | 3.4 | 8.5
1.84 µM | 16.2 µM | 27.2 µM | 2.32 µM | O=C1/C(=C\c2ccc(O)c(O)c2)S/C(=N/c2ccccc2)N1Cc1ccncc1 | 230 µM | 12.4 µM | 18.5 | 14.2
40.4 µM | 19.1 µM | – | – | COc1ccc(/C=C2/S/C(=N/c3ccccc3)N(Cc3ccncc3)C2=O)cc1 | 47.9 µM | 31.5 µM | 1.5 | 2.5
57.3 µM | 19.7 µM | – | – | Cc1ccc(/C=C2/S/C(=N/c3ccccc3)N(Cc3ccncc3)C2=O)cc1 | 49.5 µM | 36.9 µM | 1.3 | 2.5
